The values that follow come from US20250115864A1, “A FERMENTATION MEDIUM COMPRISING SULPHUR” (Evonik Operations GmbH, priority 2021, published 2025).

Common to all, as to assay type: cell-based
For experiment [1], the system named is Clostridium ljungdahlii. Put plainly: Formation of acetic acid and ethanol from synthesis gas with Clostridium ljungdahlii and refeeding of cysteine. The procedure: For the biotransformation of hydrogen and carbon dioxide to acetic acid and ethanol the homoacetogenic bacterium Clostridium ljungdahlii was cultivated on synthesis gas with refeeding of cysteine. All cultivation steps were carried out under anaerobic conditions in pressure-resistant glass bottles that can be closed airtight with a butyl rubber stopper.
The chemolithoautotrophic cultivation was carried out in a 1 L pressure-resistant glass bottle at 37° C., 100 rpm and a ventilation rate of 3 L/h with a premixed gas with 67% H2, 33% CO2 in an open water bath shaker for 69 h till OD600nm>0.4. The gas was discharged into the medium through a sparger with a pore size of 10 μm, which was mounted in the center of the reactors. Then the cell suspension was centrifuged and the cell pellet was resuspended in fresh CGF1 Medium.
For the production phase, as many washed cells from the preculture of C. ljungdahlii as necessary for an OD600nm of 0.2 were added to 100 ml mineral medium (CGF1 medium, pH 6.5, 1.4 g/L KOH, 2 g/L (NH4)2SO4, 1 g/L KH2PO4, 1 g/L K2HPO4, 10 mg/L FeSO4×7H2O, 3.8 mg/L MnSO4×1H2O, 246 mg/L MgSO4×7H2O, aerated for 30 min with a premixed gas with 67% H2 and 33% CO2). […] The cultivation was carried out in 500 mL pressure-resistant glass bottles at 37° C., 150 rpm in an open water bath shaker for 163 h which were aerated to an overpressure of 0.8 bar with a premixed gas with 67% H2, 33% CO2 one time a day. The pH was hold >5.0 by intermittent additions of a 140 g/L KOH solution. During the cultivation several 5 mL samples were taken to determinate OD600nm, pH und product formation. […] The determination of the product concentrations was performed by semiquantitative 1H-NMR spectroscopy. As an internal quantification standard sodium trimethylsilylpropionate (T (M) SP) was used.

The test system of experiment [2] is Clostridium autoethanogenum together with Clostridium kluyveri in a co-culture. Put plainly: Continuous co-culture of Clostridium autoethanogenum and Clostridium kluyveri with high potassium thioacetate concentration. The protocol:
(§1) The homoacetogenic bacterium Clostridium autoethanogenum was cultivated together with the chain elongating bacterium Clostridium kluyveri in a co-culture on synthesis gas in a mineral medium with potassium thioacetate as reduced sulfur source. The cultivation was carried out under anaerobic conditions in a pressure-resistant stainless steel bubble column loop reactor.
(§2) The cultivation was run at 37° C. and an overpressure of 2 bar as a continuous fermentation with continuous feeding of 300 L/h of a mixture of water, substrates, salts, trace elements and vitamins. The pH was automatically hold at 5.80 with ammonia feeding. The outlet stream of 300 L/h out of the fermenter was for 98.2% as permeate with cell retention and for 1.8% as purge without cell retention.
(§3) The culture was previously inoculated with cells from fresh cultures of C. autoethanogenum and C. kluyveri and was already running since >13.000 h full continuously as stable coculture at an optical density (OD600nm) of ˜ 11.8. Fresh medium was continuously fed into the reactor and fermentation broth continuously removed from the reactor with a dilution rate of 2.8 d^−1. During cultivation several 5 mL samples were taken to determinate OD600nm, PH und product formation. The determination of the product concentrations was performed by semiquantitative 1H-NMR spectroscopy. As an internal quantification standard sodium trimethylsilylpropionate (T (M) SP) was used.

For experiment [3] the test system is unchanged. Put plainly: Continuous co-culture of Clostridium autoethanogenum and Clostridium kluyveri with low potassium thioacetate concentration. The protocol:
as §1, §2
as §3, with “>10.000” for “>13.000”, “9.0.” for “11.8.”

Setting [4] is: culture C (refed with L-cysteine-hydrochloride) versus cultures A and B, production phase.
Setting [5] is: 10.69 mg/L potassium thioacetate in media feed (before increase).
The mark [6] stands for this setting: 50 h, 100 h and 150 h after increasing potassium thioacetate in media feed to 300% (32.07 mg/L).
[7] abbreviates: 10.69 mg/L potassium thioacetate in media feed (before decrease).
[8] abbreviates: 50 h after decreasing potassium thioacetate in media feed to 10% (1.69 mg/L).

Regarding `Cl.N[C@@H](CS)C(=O)O` [L-cysteine, L-cysteine-hydrochloride], the “OD(600 nm)” value in experiment [1] (culture A, initial 400 mg/L L-cysteine-hydrochloride, no refeed, 0 h) turned out to be 0.206; in experiment [1] (culture A, initial 400 mg/L L-cysteine-hydrochloride, no refeed, 18.75 h) it was 0.232; in experiment [1] (culture A, initial 400 mg/L L-cysteine-hydrochloride, no refeed, 41.5 h), 0.293; in experiment [1] (culture A, initial 400 mg/L L-cysteine-hydrochloride, no refeed, 46.75 h) it was 0.281; in experiment [1] (culture A, initial 400 mg/L L-cysteine-hydrochloride, no refeed, 65.5 h) it was 0.324; in experiment [1] (culture A, initial 400 mg/L L-cysteine-hydrochloride, no refeed, 69.5 h) it was 0.366. Further, the “OD(600 nm)” value in experiment [1] (culture A, initial 400 mg/L L-cysteine-hydrochloride, no refeed, 89.75 h) came out at 0.324; in experiment [1] (culture A, initial 400 mg/L L-cysteine-hydrochloride, no refeed, 163.5 h) it was 0.339; in experiment [1] (culture B, initial 200 mg/L L-cysteine-hydrochloride, no refeed, 0 h) it was 0.197; in experiment [1] (culture B, initial 200 mg/L L-cysteine-hydrochloride, no refeed, 18.75 h), 0.261; in experiment [1] (culture B, initial 200 mg/L L-cysteine-hydrochloride, no refeed, 41.5 h), 0.279; in experiment [1] (culture B, initial 200 mg/L L-cysteine-hydrochloride, no refeed, 46.75 h), 0.269. In addition, the “OD(600 nm)” value stood at 0.271 in experiment [1] (culture B, initial 200 mg/L L-cysteine-hydrochloride, no refeed, 65.5 h); 0.259 in experiment [1] (culture B, initial 200 mg/L L-cysteine-hydrochloride, no refeed, 69.5 h); 0.241 in experiment [1] (culture B, initial 200 mg/L L-cysteine-hydrochloride, no refeed, 89.75 h); 0.237 in experiment [1] (culture B, initial 200 mg/L L-cysteine-hydrochloride, no refeed, 163.5 h); 0.209 in experiment [1] (culture C, initial 200 mg/L L-cysteine-hydrochloride, refed 200 mg/L after 18, 41, 65, 89 h, 0 h); 0.245 in experiment [1] (culture C, initial 200 mg/L L-cysteine-hydrochloride, refed 200 mg/L after 18, 41, 65, 89 h, 18.75 h). Further, the “OD(600 nm)” value in experiment [1] (culture C, initial 200 mg/L L-cysteine-hydrochloride, refed 200 mg/L after 18, 41, 65, 89 h, 41.5 h) was 0.339; in experiment [1] (culture C, initial 200 mg/L L-cysteine-hydrochloride, refed 200 mg/L after 18, 41, 65, 89 h, 46.75 h), 0.335; in experiment [1] (culture C, initial 200 mg/L L-cysteine-hydrochloride, refed 200 mg/L after 18, 41, 65, 89 h, 65.5 h), 0.399; in experiment [1] (culture C, initial 200 mg/L L-cysteine-hydrochloride, refed 200 mg/L after 18, 41, 65, 89 h, 69.5 h) it was 0.392; in experiment [1] (culture C, initial 200 mg/L L-cysteine-hydrochloride, refed 200 mg/L after 18, 41, 65, 89 h, 89.75 h), 0.431; in experiment [1] (culture C, initial 200 mg/L L-cysteine-hydrochloride, refed 200 mg/L after 18, 41, 65, 89 h, 95.5 h), 0.434. The “OD(600 nm)” value in experiment [1] (culture C, initial 200 mg/L L-cysteine-hydrochloride, refed 200 mg/L after 18, 41, 65, 89 h, 163.5 h) is 0.481. The cell growth result in experiment [1] (setting [4]) was “stronger cell growth than cultures A and B”. For the same compound, the “concentrations of acetate and ethanol” value in experiment [1] (setting [4]) was “increased more than in culture A and B”.

Consider `CC(=O)[S-].[K+]` [potassium thioacetate], for which, in experiment [2] (setting [5]), the “steady state concentration acetate” value is about 1.10 g/L, the “steady state concentration butyrate” value is on record as about 1.08 g/L, the “steady state concentration ethanol” value is given as “about 2.67 g/L” and the “steady state concentration hexanoate” value is about 3.75 g/L. The “optical density (OD600nm)” value in experiment [2] (10.69 mg/L potassium thioacetate in media feed (before increase), stable coculture) was about 11.8. Further, in experiment [2] (setting [6]), the CO2 turnover was 70%; the OD(600 nm) stood at 11.80; the “steady state concentrations of the educts and products” value is reported as “stayed on the same level”. Moreover, in experiment [3] (setting [7]), the CO2 turnover is on record as 70%, the OD(600 nm) was 9.0, the “steady state concentration acetate” value is on record as about 0.90 g/L and the “steady state concentration butyrate” value is about 0.91 g/L. Further, in experiment [3] (setting [7]), the “steady state concentration ethanol” value is recorded as “about 3.27 g/L” and the “steady state concentration hexanoate” value was about 3.61 g/L. Also, in experiment [3] (setting [8]), the CO2 turnover is listed as 50%, the OD(600 nm) is on record as 7.60, the ethanol concentration turned out to be 4.37 g/L and the “steady state concentration acetate” value is listed as 0.50 g/L. For the same compound, in experiment [3] (setting [8]), the “steady state concentration butyrate” value amounted to 0.53 g/L and the “steady state concentration hexanoate” value was 2.41 g/L.
